The record followed here is publication PMC9698010 (Pharmaceutics, 2022).

The test system of series [1] is IL-6. The experiment in a line: LPS-induced inflammation, capsule studies: plasma IL-6. The format is in vivo, male Lewis rats. The protocol: To induce intestinal inflammation, 1 mg/kg LPS was injected intraperitoneally into rats at T5 h, this timing was chosen based on the CT imaging results, to allow capsules to reach the intestines. Inflammation-free control rats were instead intraperitoneally injected with an equal volume of PBS. Controls used in this study were naïve rats (no induction of inflammation, vehicle treatment (PBS)), treatment-free rats (LPS + vehicle (PBS)), and comparative treatment control rats (induction of inflammation, treatment with 1 mg/kg oral dexamethasone solution, formulated in PEG400/polysorbate 80 in deionized water (10/9/81), at T4 h). Animal sacrifice occurred at T8 h (3 h after LPS administration). Terminal plasma and colonic tissue were subsequently excised, and levels of IL-6 quantified using the V-PLEX validated immunoassay kit.

Series [2] has as its system IL-6. The experiment in a line: LPS-induced inflammation, ascending dose oral solution study: colonic tissue IL-6. The format is in vivo, male Lewis rats. The settings on record: 4 hours. The protocol: (§1) Male Lewis rats were fasted overnight before the day of experiment. Rats were chosen as an in vivo model in these experiments as they are commonly used for assessment of IBD investigatory treatments. […] To induce intestinal inflammation, rats were intraperitoneally injected with 1 mg/kg LPS at T1 h. Intraperitoneal injection of LPS is an accepted method for instigating inflammation in rats as pharmacodynamic endpoints. […] Controls used in this study were naïve rats (no induction of inflammation, placebo treatment (PBS)), treatment-free rats (LPS + vehicle (PBS)), and comparative treatment control rats (induction of inflammation, treatment with 1 mg/kg oral dexamethasone solution, formulated in PEG400/polysorbate 80 in deionized water (10/9/81). Rats not treated with LPS were instead injected with the same volume of PBS solution.

Series [3] concerns IL-6. The experiment in a line: LPS-induced inflammation, capsule studies: colonic tissue IL-6. The note with it: 1 mg/kg dexamethasone oral; targeted vs untargeted comparison, 8 h analysis. Type of series: in vivo, male Lewis rats.
For series [4], the system named is IL-6. The experiment in a line: LPS-induced inflammation, ascending dose oral solution study: plasma IL-6. The format is in vivo, male Lewis rats. The settings on record: 1 mg/kg dexamethasone solution, 4 hours after administration. The protocol: as §1
For the next series, the system named is rat colonic microbiota. The experiment in a line: Ex vivo stability of tofacitinib in rat cecal slurry (colonic microbiota). Type of series: in vitro ADME. The note with it: 1 mg/mL in rat cecal slurry, anaerobic.
Where [5] appears, read: 1 and 10 mg/kg tofacitinib solution.

Counter-ions that a name gives are not always drawn.

Description for rat colonic microbiota: The cecum of healthy rats (male, n = 6) was obtained shortly following animal sacrifice and transferred to an anaerobic workstation (Electrotek 500TG workstation, Electrotek, West Yorkshire, UK) maintained at 37 °C and 70% relative humidity. The rats’ cecums were opened and fluid was collected using aseptic technique to preserve the fluid’s microbial composition. Next, the fluid was homogenised with basal media (ratio 1:4, composition as used by Hughes et al. [29] at 10,000 rpm and sieved through a mesh with 5 µm aperture.
Samples were taken at 0, 1, 2, 4, and 6 h and immediately quenched with ice-cold acetonitrile at a ratio of 1:3 to arrest microbial/enzyme activity. Quenched samples were then centrifuged (9600× g, 10 min, 4 °C) and the supernatant was collected for quantification of drug concentration using HPLC.
A mobile phase consisting of 0.1% phosphoric acid in water (A) and acetonitrile (B) was used via a gradient method, whereby %A: 95 and %B: 5 from 0.0–4.0 min; and %A: 80 and %B: 20 from 4.0–6.0 min. An Agilent Zorbax-Extend C18 column (50 × 4.6 mm, 1.8 μm) (Santa Clara, CA, USA) at 1.8 mL/min, with column temperature equilibrated at 40 ± 2 °C. […] Drug concentration was calculated by comparing the area under the curve (AUC) of the drug’s peak in samples to those produced with a calibration curve.

As for `C[C@@H]1C[C@H]2[C@@H]3CCC4=CC(=O)C=C[C@]4(C)[C@@]3(F)[C@@H](O)C[C@]2(C)[C@@]1(O)C(=O)CO` [dexamethasone], the “plasma IL-6 levels compared to the untreated control” value in the series on IL-6 [1] (1 mg/kg dexamethasone oral, targeted vs untargeted comparison, 8 h) was “significantly reduce”. Also, the “plasma IL-6 compared to the untreated control” value with IL-6 [1] (1 mg/kg oral dexamethasone solution, dose response study) was “lowered”. Besides, the “colonic tissue IL-6 compared to the treatment-free control” value in the series on IL-6 [2] (1 mg/kg dexamethasone) was “significantly lowered”. Moreover, the “IL-6 concentration in colonic tissue compared to the untreated control” value with IL-6 [3] was “did not significantly alter”. In the series on IL-6 [4], the “IL-6 levels in plasma compared to the LPS + vehicle control” value is on record as “significantly lower”.
In the case of `C[C@@H]1CCN(C(=O)CC#N)C[C@@H]1N(C)c1ncnc2[nH]ccc12` [tofacitinib, Tofacitinib citrate], in the series with IL-6 [2] (setting [5]), the “colonic IL-6 concentrations compared to the naïve rats” value is listed as “no significant difference” and the “colonic tissue IL-6 compared to 0.1 mg/kg tofacitinib” value is on record as “significantly lower”. Besides, the “time stable when delivered to the cecum/colon” value in the series on rat colonic microbiota is “at least 6 h”.
